In the kinase profiling compilation of Christmann-Franck et al. (2016):

Legend:
Assay in all cases: radiometric filter-binding kinase assay, Kinase HotSpot
Settings in all cases: compound 0.5 µM; ATP 10 µM
EPHA2 (human) = EPHA2 (human) (UniProt P29317)
NUAK2 (human) = NUAK2 (human) (UniProt Q9H093)
MKNK2 (human) = MKNK2 (human) (UniProt Q9HBH9)
EPHB1 (human) = EPHB1 (human) (UniProt P54762)
PIM3 (human) = PIM3 (human) (UniProt Q86V86)
NEK4 (human) = NEK4 (human) (UniProt P51957)
TAOK3 (human) = TAOK3 (human) (UniProt Q9H2K8)
BRSK2 (human) = BRSK2 (human) (UniProt Q8IWQ3)
PRKCB1 (human) = PRKCB1 (human) (UniProt P05771)
MINK1 (human) = MINK1 (human) (UniProt Q8N4C8)
MAP4K2 (human) = MAP4K2 (human) (UniProt Q12851)
FRK (human) = FRK (human) (UniProt P42685)
STK17A (human) = STK17A (human) (UniProt Q9UEE5)
STK39 (human) = STK39 (human) (UniProt Q9UEW8)
AURKB (human) = AURKB (human) (UniProt Q96GD4)
IGF1R (human) = IGF1R (human) (UniProt P08069)
CSK (human) = CSK (human) (UniProt P41240)
CHEK2 (human) = CHEK2 (human) (UniProt O96017)
LCK (human) = LCK (human) (UniProt P06239)
CDK4 CCND1 (human) = CDK4 CCND1 (human) (UniProt P24385+P11802)
KIT (human) = KIT (human) (UniProt P10721)
GRK6 (human) = GRK6 (human) (UniProt P43250)
MARK1 (human) = MARK1 (human) (UniProt Q9P0L2)
ACVRL1 (human) = ACVRL1 (human) (UniProt P37023)
CSNK1G2 (human) = CSNK1G2 (human) (UniProt P78368)
MARK3 (human) = MARK3 (human) (UniProt P27448)
CDK2 CCNA2 (human) = CDK2 CCNA2 (human) (UniProt P24941+P20248)
[1] = molecular target: TYK2 JH1 catalytic (human) (UniProt P29597)
OXSR1 (human) = OXSR1 (human) (UniProt O95747)
CSNK1E (human) = CSNK1E (human) (UniProt P49674)
FLT3 (human) = FLT3 (human) (UniProt P36888)
CSNK2A2 (human) = CSNK2A2 (human) (UniProt P19784)
CDK1 CCNA2 (human) = CDK1 CCNA2 (human) (UniProt P06493+P20248)
MAPKAPK2 (human) = MAPKAPK2 (human) (UniProt P49137)
RPS6KA3 KD1 KD2 (human) = RPS6KA3 KD1 KD2 (human) (UniProt P51812)
ABL2 (human) = ABL2 (human) (UniProt P42684)
HIPK4 (human) = HIPK4 (human) (UniProt Q8NE63)
NTRK2 (human) = NTRK2 (human) (UniProt Q16620)
PRKD1 (human) = PRKD1 (human) (UniProt Q15139)
PIM1 (human) = PIM1 (human) (UniProt P11309)
AKT1 (human) = AKT1 (human) (UniProt P31749)
GSG2 (human) = GSG2 (human) (UniProt Q8TF76)

Chain of BRSK2 (human) (Q8IWQ3 whole entry, looked up): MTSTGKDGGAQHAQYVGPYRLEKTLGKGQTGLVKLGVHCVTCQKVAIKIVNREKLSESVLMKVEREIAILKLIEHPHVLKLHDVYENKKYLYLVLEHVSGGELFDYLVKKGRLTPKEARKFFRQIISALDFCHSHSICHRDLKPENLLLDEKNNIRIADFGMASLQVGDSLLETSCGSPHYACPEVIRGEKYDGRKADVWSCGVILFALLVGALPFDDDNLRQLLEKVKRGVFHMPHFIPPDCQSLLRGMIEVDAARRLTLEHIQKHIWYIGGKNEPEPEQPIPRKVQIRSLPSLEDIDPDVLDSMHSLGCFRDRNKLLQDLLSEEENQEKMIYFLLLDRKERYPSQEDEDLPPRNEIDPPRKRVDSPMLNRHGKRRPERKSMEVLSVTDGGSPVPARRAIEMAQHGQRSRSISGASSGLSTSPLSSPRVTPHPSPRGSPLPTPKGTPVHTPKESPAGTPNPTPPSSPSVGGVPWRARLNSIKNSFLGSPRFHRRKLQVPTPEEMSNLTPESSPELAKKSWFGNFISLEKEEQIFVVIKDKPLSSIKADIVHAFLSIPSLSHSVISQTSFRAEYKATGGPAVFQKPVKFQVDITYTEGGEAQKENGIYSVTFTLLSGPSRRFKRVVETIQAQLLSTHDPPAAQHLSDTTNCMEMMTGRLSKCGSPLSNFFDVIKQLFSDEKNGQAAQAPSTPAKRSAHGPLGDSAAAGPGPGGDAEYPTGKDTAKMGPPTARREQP
Chain of MAP4K2 (human) (Q12851 whole entry, looked up): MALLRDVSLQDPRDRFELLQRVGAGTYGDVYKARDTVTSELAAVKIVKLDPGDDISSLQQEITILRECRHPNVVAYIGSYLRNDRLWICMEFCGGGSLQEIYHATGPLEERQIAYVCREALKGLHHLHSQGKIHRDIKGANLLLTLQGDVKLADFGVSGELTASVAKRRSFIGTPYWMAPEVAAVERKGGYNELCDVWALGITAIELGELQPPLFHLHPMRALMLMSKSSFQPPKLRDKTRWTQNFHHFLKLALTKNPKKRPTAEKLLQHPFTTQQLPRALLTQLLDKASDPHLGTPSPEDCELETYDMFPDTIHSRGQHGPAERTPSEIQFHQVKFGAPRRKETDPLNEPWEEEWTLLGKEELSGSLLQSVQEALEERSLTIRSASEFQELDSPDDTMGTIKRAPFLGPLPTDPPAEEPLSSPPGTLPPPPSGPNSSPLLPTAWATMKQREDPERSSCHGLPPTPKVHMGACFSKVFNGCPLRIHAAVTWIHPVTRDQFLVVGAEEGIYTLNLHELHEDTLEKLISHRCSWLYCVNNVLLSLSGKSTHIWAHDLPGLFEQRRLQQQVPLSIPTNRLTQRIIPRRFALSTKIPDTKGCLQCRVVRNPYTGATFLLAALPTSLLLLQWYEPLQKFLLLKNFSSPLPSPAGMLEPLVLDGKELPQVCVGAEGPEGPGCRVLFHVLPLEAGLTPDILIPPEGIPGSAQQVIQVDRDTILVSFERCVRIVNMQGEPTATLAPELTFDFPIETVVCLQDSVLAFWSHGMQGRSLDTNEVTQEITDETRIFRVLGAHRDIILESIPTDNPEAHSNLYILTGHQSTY
Chain of EPHA2 (human) (P29317 whole entry, looked up): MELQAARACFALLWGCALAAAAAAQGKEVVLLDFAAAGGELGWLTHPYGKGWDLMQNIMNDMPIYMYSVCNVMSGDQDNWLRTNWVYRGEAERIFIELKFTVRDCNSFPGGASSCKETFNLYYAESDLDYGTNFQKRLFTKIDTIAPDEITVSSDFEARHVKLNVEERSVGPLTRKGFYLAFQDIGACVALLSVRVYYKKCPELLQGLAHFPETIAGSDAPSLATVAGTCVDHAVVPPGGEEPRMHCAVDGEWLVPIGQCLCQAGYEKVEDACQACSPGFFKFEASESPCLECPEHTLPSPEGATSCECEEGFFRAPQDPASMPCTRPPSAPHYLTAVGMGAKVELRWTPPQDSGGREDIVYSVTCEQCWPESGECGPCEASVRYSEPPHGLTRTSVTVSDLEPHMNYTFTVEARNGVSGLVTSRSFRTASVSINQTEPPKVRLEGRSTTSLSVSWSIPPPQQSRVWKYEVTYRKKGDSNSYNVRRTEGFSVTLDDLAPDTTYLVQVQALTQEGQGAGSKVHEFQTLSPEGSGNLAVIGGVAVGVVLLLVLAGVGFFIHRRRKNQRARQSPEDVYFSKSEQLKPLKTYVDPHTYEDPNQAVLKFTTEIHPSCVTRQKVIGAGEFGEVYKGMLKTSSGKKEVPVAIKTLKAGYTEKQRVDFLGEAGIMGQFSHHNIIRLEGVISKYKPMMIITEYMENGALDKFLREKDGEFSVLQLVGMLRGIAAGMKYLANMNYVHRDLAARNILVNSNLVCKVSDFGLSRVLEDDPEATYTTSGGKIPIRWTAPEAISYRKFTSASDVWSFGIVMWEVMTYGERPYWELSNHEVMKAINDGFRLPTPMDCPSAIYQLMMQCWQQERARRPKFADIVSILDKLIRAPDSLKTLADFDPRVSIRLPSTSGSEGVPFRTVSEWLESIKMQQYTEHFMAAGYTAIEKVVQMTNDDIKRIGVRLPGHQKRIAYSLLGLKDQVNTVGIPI
Chain of OXSR1 (human) (O95747 whole entry, looked up): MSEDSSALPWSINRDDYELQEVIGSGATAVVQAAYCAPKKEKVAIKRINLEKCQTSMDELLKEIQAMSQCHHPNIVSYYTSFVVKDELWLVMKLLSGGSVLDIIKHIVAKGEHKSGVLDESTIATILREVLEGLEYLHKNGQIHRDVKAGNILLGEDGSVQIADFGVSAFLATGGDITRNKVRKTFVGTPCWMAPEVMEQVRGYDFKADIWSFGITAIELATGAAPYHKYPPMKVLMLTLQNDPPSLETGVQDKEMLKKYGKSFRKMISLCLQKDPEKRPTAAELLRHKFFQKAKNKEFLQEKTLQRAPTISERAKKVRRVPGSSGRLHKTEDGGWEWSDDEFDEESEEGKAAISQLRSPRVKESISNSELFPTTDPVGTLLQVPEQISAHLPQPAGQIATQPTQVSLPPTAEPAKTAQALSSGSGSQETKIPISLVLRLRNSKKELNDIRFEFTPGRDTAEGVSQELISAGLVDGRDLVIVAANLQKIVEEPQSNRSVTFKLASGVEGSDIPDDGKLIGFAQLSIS
Chain of PRKD1 (human) (Q15139 whole entry, looked up): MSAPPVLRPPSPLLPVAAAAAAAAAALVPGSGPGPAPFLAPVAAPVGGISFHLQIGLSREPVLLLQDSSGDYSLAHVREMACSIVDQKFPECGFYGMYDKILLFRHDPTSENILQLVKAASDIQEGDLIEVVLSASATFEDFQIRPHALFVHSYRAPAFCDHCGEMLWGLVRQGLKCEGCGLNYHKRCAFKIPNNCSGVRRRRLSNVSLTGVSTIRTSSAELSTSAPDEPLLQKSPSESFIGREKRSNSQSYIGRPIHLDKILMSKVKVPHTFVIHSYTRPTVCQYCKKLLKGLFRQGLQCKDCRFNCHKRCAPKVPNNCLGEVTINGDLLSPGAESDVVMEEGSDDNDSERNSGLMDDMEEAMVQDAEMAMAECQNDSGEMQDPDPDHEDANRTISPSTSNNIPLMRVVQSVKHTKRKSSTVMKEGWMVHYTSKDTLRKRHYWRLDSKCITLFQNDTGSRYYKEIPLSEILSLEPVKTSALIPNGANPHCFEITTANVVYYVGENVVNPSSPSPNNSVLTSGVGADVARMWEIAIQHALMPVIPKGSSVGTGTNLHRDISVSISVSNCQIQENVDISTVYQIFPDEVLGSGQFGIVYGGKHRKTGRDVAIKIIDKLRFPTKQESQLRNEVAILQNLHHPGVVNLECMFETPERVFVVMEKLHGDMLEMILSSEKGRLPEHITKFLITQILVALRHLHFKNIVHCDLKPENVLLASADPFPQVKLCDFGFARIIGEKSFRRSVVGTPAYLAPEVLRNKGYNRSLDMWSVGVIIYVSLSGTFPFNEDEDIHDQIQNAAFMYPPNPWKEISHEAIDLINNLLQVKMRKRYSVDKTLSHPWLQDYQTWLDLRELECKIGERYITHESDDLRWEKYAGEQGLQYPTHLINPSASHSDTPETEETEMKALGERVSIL
Chain of CSNK1G2 (human) (P78368 whole entry, looked up): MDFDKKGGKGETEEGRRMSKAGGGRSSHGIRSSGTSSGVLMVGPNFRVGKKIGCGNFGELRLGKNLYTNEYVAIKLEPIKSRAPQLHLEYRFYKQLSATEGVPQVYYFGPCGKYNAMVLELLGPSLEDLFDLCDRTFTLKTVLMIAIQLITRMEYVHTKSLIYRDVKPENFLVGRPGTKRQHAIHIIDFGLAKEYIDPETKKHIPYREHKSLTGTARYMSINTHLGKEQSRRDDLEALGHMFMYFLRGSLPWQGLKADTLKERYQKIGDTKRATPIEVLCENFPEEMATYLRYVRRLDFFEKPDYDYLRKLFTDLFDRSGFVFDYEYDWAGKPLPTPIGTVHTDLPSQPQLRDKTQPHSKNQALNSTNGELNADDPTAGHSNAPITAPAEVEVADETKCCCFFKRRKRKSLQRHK
Chain of GRK6 (human) (P43250 whole entry, looked up): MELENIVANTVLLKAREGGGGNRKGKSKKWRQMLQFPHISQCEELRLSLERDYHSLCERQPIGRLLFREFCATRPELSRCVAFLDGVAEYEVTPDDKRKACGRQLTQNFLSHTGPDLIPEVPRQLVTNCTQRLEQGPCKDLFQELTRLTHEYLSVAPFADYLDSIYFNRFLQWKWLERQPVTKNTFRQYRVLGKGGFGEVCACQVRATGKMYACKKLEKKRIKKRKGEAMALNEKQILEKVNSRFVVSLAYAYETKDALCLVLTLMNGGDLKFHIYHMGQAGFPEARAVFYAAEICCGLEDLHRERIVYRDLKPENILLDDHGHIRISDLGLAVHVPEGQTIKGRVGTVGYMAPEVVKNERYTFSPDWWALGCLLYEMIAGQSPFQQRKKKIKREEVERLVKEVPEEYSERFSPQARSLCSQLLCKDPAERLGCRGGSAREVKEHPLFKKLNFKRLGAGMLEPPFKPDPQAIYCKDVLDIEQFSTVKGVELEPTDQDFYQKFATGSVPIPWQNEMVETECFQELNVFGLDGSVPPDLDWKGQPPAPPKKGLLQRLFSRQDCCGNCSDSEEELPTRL

COc1ccc(OC)c2c(=S)c3ccccc3[nH]c12
residual activity (EPHA2 (human)): 100%
residual activity (NUAK2 (human)): 98.9%
residual activity (MKNK2 (human)): 86.2%
residual activity (EPHB1 (human)): 87.1%
residual activity (PIM3 (human)): 93.1%
residual activity (NEK4 (human)): 87.7%
residual activity (TAOK3 (human)): 92.7%
residual activity (BRSK2 (human)): 92.5%
residual activity (PRKCB1 (human)): 101%
residual activity (MINK1 (human)): 95.9%
residual activity (MAP4K2 (human)): 96.5%
residual activity (FRK (human)): 88.8%
residual activity (STK17A (human)): 90.3%
residual activity (STK39 (human)): 94.4%
residual activity (AURKB (human)): 89.6%
residual activity (IGF1R (human)): 97.2%
residual activity (CSK (human)): 103%
residual activity (CHEK2 (human)): 117%
residual activity (LCK (human)): 94.7%
residual activity (CDK4 CCND1 (human)): 93.5%
residual activity (KIT (human)): 78.6%
residual activity (GRK6 (human)): 97.2%
residual activity (MARK1 (human)): 88.3%
residual activity (ACVRL1 (human)): 99%
residual activity (CSNK1G2 (human)): 103%
residual activity (MARK3 (human)): 96.7%
residual activity (CDK2 CCNA2 (human)): 88.6%
residual activity [1]: 108%
residual activity (OXSR1 (human)): 90.6%
residual activity (CSNK1E (human)): 90.3%
residual activity (FLT3 (human)): 71%
residual activity (CSNK2A2 (human)): 87.1%
residual activity (CDK1 CCNA2 (human)): 96.2%
residual activity (MAPKAPK2 (human)): 94.6%
residual activity (RPS6KA3 KD1 KD2 (human)): 109%
residual activity (ABL2 (human)): 92.5%
residual activity (HIPK4 (human)): 97.3%
residual activity (NTRK2 (human)): 94%
residual activity (PRKD1 (human)): 99.8%
residual activity (PIM1 (human)): 93%
residual activity (AKT1 (human)): 89.7%
residual activity (GSG2 (human)): 89.2%

COc1cc2ncc(-c3ccccc3)nc2cc1OC
residual activity (EPHA2 (human)): 102%
residual activity (NUAK2 (human)): 133%
residual activity (MKNK2 (human)): 86.3%
residual activity (EPHB1 (human)): 92.8%
residual activity (PIM3 (human)): 87.4%
residual activity (NEK4 (human)): 101%
residual activity (TAOK3 (human)): 88.9%
residual activity (BRSK2 (human)): 103%
residual activity (PRKCB1 (human)): 105%
residual activity (MINK1 (human)): 93.5%
residual activity (MAP4K2 (human)): 99.2%
residual activity (FRK (human)): 99.3%
residual activity (STK17A (human)): 95.5%
residual activity (STK39 (human)): 88%
residual activity (AURKB (human)): 74.4%
residual activity (IGF1R (human)): 91.1%
residual activity (CSK (human)): 107%
residual activity (CHEK2 (human)): 94.2%
residual activity (LCK (human)): 93.5%
residual activity (CDK4 CCND1 (human)): 103%
residual activity (KIT (human)): 67.3%
residual activity (GRK6 (human)): 92.8%
residual activity (MARK1 (human)): 92.6%
residual activity (ACVRL1 (human)): 95.8%
residual activity (CSNK1G2 (human)): 84%
residual activity (MARK3 (human)): 98.2%
residual activity (CDK2 CCNA2 (human)): 92.9%
residual activity [1]: 93.9%
residual activity (OXSR1 (human)): 100%
residual activity (CSNK1E (human)): 79.3%
residual activity (FLT3 (human)): 65.9%
residual activity (CSNK2A2 (human)): 98.3%
residual activity (CDK1 CCNA2 (human)): 94.8%
residual activity (MAPKAPK2 (human)): 85.9%
residual activity (RPS6KA3 KD1 KD2 (human)): 101%
residual activity (ABL2 (human)): 94%
residual activity (HIPK4 (human)): 86.4%
residual activity (NTRK2 (human)): 99.5%
residual activity (PRKD1 (human)): 93.3%
residual activity (PIM1 (human)): 95.9%
residual activity (AKT1 (human)): 99.2%
residual activity (GSG2 (human)): 92.1%
